Experimental data published in patent US20240115654A1, “INTRAVENOUS ADMINISTRATION OF ENGINEERED ANTIMICROBIAL AMPHIPHILIC PEPTIDES” (priority 2021, published 2024).
In brackets after ≈: the same amount, converted by molar mass. Blank lines part the entries; values can stand above or below the molecule they belong to. Peptide text beside a SMILES is read from it.

How the values were obtained:
[1] = test system: P. aeruginosa strains (PAO1 and 2 clinical isolates); test: Determination of bacterial resistance, passage at 0.5×MIC with daily MIC; type: cell-based, Pseudomonas aeruginosa; details: three P. aeruginosa strains, exposure at 0.5×MIC, FIG. 20
From the text: Each antibiotic was compared for their propensity to select for bacterial resistance phenotypes in vitro.

[2] = test system: S. aureus; test: Periprosthetic joint infection model, implant biofilm CFU; type: in vivo; details: mouse, intraperitoneal; SEQ ID NO:1 0.1-10 mg/kg; compared to untreated control mice, FIG. 16
Description: Periprosthetic joint infection was modeled in a mouse by placing an intra-articular K-wire through the medullary canal of the proximal femur followed by intra-articular inoculation with S. aureus. Animals were treated systemically with an intraperitoneal delivery of cefazolin, rifampin, or the exemplary peptide of SEQ ID NO: 1. Intraperitoneal delivery was chosen due to technical difficulties associated with intravenous delivery. Implant sonication and proximal femur homogenate were used to quantify viable bacteria.

[3] = test system: S. aureus strain SH1000 biofilms; test: In vitro biofilm disruption on stainless steel rods; type: cell-based, Staphylococcus aureus; details: S. aureus SH1000, 10×MIC, up to 24 hours, FIG. 15
From the text: FIG. 15 depicts the effect of administration of SEQ ID NO:1 and cefazolin on biofilm maintenance. […] SEQ ID NO:1 eliminated mature implant biofilms on a model strain of S. aureus, SH1000.

[4] = test system: Staphylococcus aureus ATCC 43300 (MRSA); type: cell-based; details: ATCC 43300
Description: (§1) Each peptide was formulated in PBS buffer prior to testing. Peptides of SEQ ID NO:5 and SEQ ID NO:8 were brought up in 100% DMSO with 0.002% polysorbate-80 at 1.28 mg/mL (40× the highest final test concentration of 32 mcg/mL). Final test concentration of DMSO was 2.5% in the assay at the first dilution for those two compounds.
(§2) Mueller Hinton II broth (MHB II; BD; Lot Nos. 6258541 and 7143896) was used for MIC testing of aerobic organisms. 0.002% polysorbate 80 (P80) was added to the test medium.
(§3) MIC values were determined using a broth microdilution procedure described by CLSI (1, 3). Automated liquid handlers (Multidrop 384, Labsystems, Helsinki, Finland; Biomek 2000 and Biomek FX, Beckman Coulter, Fullerton CA) were used to conduct serial dilutions and liquid transfers.
(§4) To prepare the drug mother plates, which would provide the serial peptide dilutions for the replicate daughter plates, the wells of columns 2-12 of standard 96-well microdilution plates (Costar 3795) were filled with 150 μl of the designated diluent for each row of peptide. The test articles and comparator compounds (300 μl at 40× the highest concentration to be tested) were dispensed into the appropriate wells in column 1. The Biomek 2000 was then used to make 2-fold serial dilutions in the mother plates from column 1 through column 11. The wells of Column 12 contained no drug and served as the organism growth control wells for the assay.
(§5) The daughter plates were loaded with 185 μL per well of MHB II using the Multidrop 384. The daughter plates were completed on the Biomek FX instrument which transferred 5 uL of peptide solution from each well of a mother plate to the corresponding well of each daughter plate in a single step. A standardized inoculum of each test organism was prepared per CLSI methods. The inoculum for each organism was dispensed into sterile reservoirs divided by length (Beckman Coulter), and the Biomek 2000 was used to inoculate the plates. Daughter plates were placed on the Biomek 2000 work surface in reverse orientation so that inoculation took place from low to high drug concentration. The plates were then inoculated with 10 μL of the inoculum resulting in a final cell density of approximately 5×10^5 CFU/mL, per well.
(§6) Plates were stacked 3-4 high, covered with a lid on the top plate, placed in plastic bags, and incubated at 35° C. for 16 to 20 hrs. Following incubation, the microplates were removed from the incubator and viewed from the bottom using a plate viewer. […] The MIC was read and recorded as the lowest concentration of peptide that inhibited visible growth of the organism.

[5] = test system: Staphylococcus aureus NRS382 (USA100; HA-MRSA); type: cell-based; details: USA100
Description: as §1, §2, §3, §4, §5, §6

[6] = test system: Pseudomonas aeruginosa ATCC BAA-2109 (MDR); type: cell-based; details: ATCC BAA-2109
Description: as §1, §2, §3, §4, §5, §6

[7] = test system: Pseudomonas aeruginosa ATCC 27853 (non-MDR; QC); type: cell-based; details: ATCC 27853
Description: as §1, §2, §3, §4, §5, §6

[8] = test system: Streptococcus pneumoniae ATCC 49619 (QC); type: cell-based; details: ATCC 49619
Description: as §1, §2, §3, §4, §5, §6

[9] = test system: Staphylococcus aureus ATCC 29213 (MSSA; QC); type: cell-based; details: ATCC 29213
Description: as §1, §2, §3, §4, §5, §6

[10] = test system: Enterococcus faecalis ATCC 700802 (V583 VRE); type: cell-based; details: ATCC 700802
Description: as §1, §2, §3, §4, §5, §6

[11] = test system: Streptococcus pyogenes ATCC 49399; type: cell-based; details: ATCC 49399
Description: as §1, §2, §3, §4, §5, §6

[12] = test system: Enterococcus faecalis ATCC 29212 (VSE; QC); type: cell-based; details: ATCC 29212
Description: as §1, §2, §3, §4, §5, §6

[13] = test system: Klebsiella pneumoniae ATCC BAA-1705 (KPC); type: cell-based; details: ATCC BAA-1705
Description: as §1, §2, §3, §4, §5, §6

[14] = test system: Acinetobacter baumannii ATCC 19606 (non-MDR); type: cell-based; details: ATCC 19606
Description: as §1, §2, §3, §4, §5, §6

[15] = test system: Escherichia coli ATCC 25922 (QC); type: cell-based; details: ATCC 25922
Description: as §1, §2, §3, §4, §5, §6

[16] = test system: Escherichia coli ATCC 35218 (ESBL); type: cell-based; details: ATCC 35218
Description: as §1, §2, §3, §4, §5, §6

[17] = test system: Escherichia coli ATCC BAA-2471 (NDM-1); type: cell-based; details: ATCC BAA-2471
Description: as §1, §2, §3, §4, §5, §6

[18] = test system: Enterococcus faecium ATCC 51559 (VRE); type: cell-based; details: ATCC 51559
Description: as §1, §2, §3, §4, §5, §6

[19] = test system: Acinetobacter baumannii ATCC BAA-1797 (MDR); type: cell-based; details: ATCC BAA-1797
Description: as §1, §2, §3, §4, §5, §6

Molecule: LL-37 [LL37]
time to development of resistance (fold MIC >10) [1]: ≤ 9 days

Molecule: CO[C@H]1/C=C/O[C@@]2(C)Oc3c(C)c(O)c4c(O)c(c(/C=N/N5CCN(C)CC5)c(O)c4c3C2=O)NC(=O)/C(C)=C\C=C\[C@H](C)[C@H](O)[C@@H](C)[C@@H](O)[C@@H](C)[C@H](OC(C)=O)[C@@H]1C [Rifampin]
reduction of implant biofilm CFU burden (sonicate culture) [2]: comparable reduction in biofilms sonicate as compared to SEQ ID NO:1
time to development of resistance (fold MIC >10) [1]: ≤ 3 days

Molecule: Cc1nnc(SCC2=C(C(=O)O)N3C(=O)[C@@H](NC(=O)Cn4cnnn4)[C@H]3SC2)s1 [cefazolin]
reduction of mature biofilm on stainless steel rods [3]: did not achieve a three-log reduction
reduction of implant biofilm CFU burden (sonicate culture) [2]: one log reduction in viable bacteria

MIC [4]: >32 µg/mL
MIC [5]: >32 µg/mL
MIC [6]: >32 µg/mL
MIC [7]: >32 µg/mL
MIC [8]: >32 µg/mL
MIC [9]: >32 µg/mL
MIC [10]: >32 µg/mL
MIC [11]: 16 µg/mL (≈ 9.15 µM)
MIC [12]: >32 µg/mL
MIC [13]: >32 µg/mL
MIC [14]: >32 µg/mL
MIC [15]: >32 µg/mL
MIC [16]: 32 µg/mL (≈ 18.3 µM)
MIC [17]: 16 µg/mL (≈ 9.15 µM)
MIC [18]: 16 µg/mL (≈ 9.15 µM)
MIC [19]: >32 µg/mL
Molecule: CC(C)[C@H](N)C(=O)N[C@H](C(=O)N[C@@H](CCCNC(=N)N)C(=O)N[C@H](C(=O)N[C@H](C(=O)N[C@@H](CCCNC(=N)N)C(=O)N[C@@H](CCCNC(=N)N)C(=O)N[C@H](C(=O)N[C@H](C(=O)N[C@@H](CCCNC(=N)N)C(=O)N[C@H](C(=O)N[C@H](C(=O)N[C@@H](CCCNC(=N)N)C(=O)N[C@@H](CCCNC(=N)N)C(=O)O)C(C)C)C(C)C)C(C)C)C(C)C)C(C)C)C(C)C)C(C)C [SEQ ID NO: 7] (H-VVRVVRRVVRVVRR-OH; N-terminus and C-terminus assumed)
